Publication PMC3446843 (Toxicological Sciences, 2012)

Tests used:
[1] = system: isolated mouse liver mitochondria, complex I; assay: Oxygen consumption through complex I; conditions: for O2 cons CI EC20: inhibition of oxygen consumption, malate + glutamate + ADP, 2µM rotenone = 100%
[2] = system: isolated mouse liver mitochondria; assay: Loss of mitochondrial transmembrane potential; type: biochemical; conditions: for ΔΨm loss EC20: 20% of maximal loss of ΔΨm (50µM mClCCP = 100%), 30-min incubation

Compound	ΔΨm loss EC20 [2]	other results
CC(=O)Nc1ccc(O)cc1 [Acetaminophen]	> 200 µM	O2 cons CI EC20 [1]: > 400 µM
CC(=O)Oc1ccccc1C(=O)O [Acetylsalicylic acid]	335.5 µM	O2 cons CI EC20 [1]: 149.8 µM
CCCN(CCC)C(=O)Cc1c(-c2ccc(Cl)cc2)nc2ccc(Cl)cn12 [Alpidem]	83.7 µM	O2 cons CI EC20 [1]: 29.6 µM
NC12CC3CC(CC(C3)C1)C2 [Amantadine]	261.2 µM	O2 cons CI EC20 [1]: > 400 µM
Nc1c(Br)cc(Br)cc1CN[C@H]1CC[C@H](O)CC1 [Ambroxol]	> 200 µM	O2 cons CI EC20 [1]: > 200 µM
CCCCc1oc2ccccc2c1C(=O)c1cc(I)c(OCCN(CC)CC)c(I)c1 [Amiodarone]	2.6 µM	–
CC1(C)S[C@@H]2[C@H](NC(=O)[C@H](N)c3ccc(O)cc3)C(=O)N2[C@H]1C(=O)O [Amoxicillin]	> 400 µM	–
CC1(C)S[C@@H]2[C@H](NC(=O)[C@H](N)c3ccccc3)C(=O)N2[C@H]1C(=O)O [Ampicillin]	> 400 µM	–
Cc1cc(=O)n(-c2ccccc2)n1C [Antipyrine]	300.0 µM	O2 cons CI EC20 [1]: > 400 µM
CC(C)c1c(C(=O)Nc2ccccc2)c(-c2ccccc2)c(-c2ccc(F)cc2)n1CC[C@@H](O)C[C@@H](O)CC(=O)O [Atorvastatin]	4.3 µM	–
O=C(O)CCCC[C@@H]1SC[C@@H]2NC(=O)N[C@@H]21 [Biotin]	> 400 µM	O2 cons CI EC20 [1]: > 400 µM
CC(=O)Oc1ccc(C(c2ccc(OC(C)=O)cc2)c2ccccn2)cc1 [Bisacodyl]	312.4 µM	O2 cons CI EC20 [1]: 52.5 µM
CCCCN1CCCCC1C(=O)Nc1c(C)cccc1C (centres unmarked) [Bupivacaine]	258.2 µM	O2 cons CI EC20 [1]: > 800 µM
CS(=O)(=O)OCCCCOS(C)(=O)=O [Busulfan]	483.1 µM	–
O=C(/C=C/c1ccc(O)c(O)c1)c1ccc(O)cc1O [Butein]	> 200 µM	–
Cn1c(=O)c2c(ncn2C)n(C)c1=O [Caffeine]	> 400 µM	O2 cons CI EC20 [1]: > 400 µM
COc1cc(CNC(=O)CCCC/C=C/C(C)C)ccc1O [Capsaicin]	275.0 µM	O2 cons CI EC20 [1]: 15.7 µM
NC(=O)N1c2ccccc2C=Cc2ccccc21 [Carbamazepine]	66.9 µM	effect on oxygen consumption (in words) ([1]; with malate/glutamate and/or succinate): increased oxygen consumption
C=CC1=C(C(=O)O)N2C(=O)[C@@H](NC(=O)/C(=N\OCC(=O)O)c3csc(N)n3)[C@H]2SC1 [Cefixime]	> 400 µM	O2 cons CI EC20 [1]: 216.8 µM
O=C(O)CCCc1ccc(N(CCCl)CCCl)cc1 [Chlorambucil]	> 200 µM	O2 cons CI EC20 [1]: 140.9 µM
O=C(O)c1cn(C2CC2)c2cc(N3CCNCC3)c(F)cc2c1=O [Ciprofloxacin]	> 400 µM	–
Clc1ccccc1C(c1ccccc1)(c1ccccc1)n1ccnc1 [Clotrimazole]	23.9 µM	–
O=c1ccc2ccccc2o1 [Coumarin]	0.9 µM	–
Cc1nc(Nc2ncc(C(=O)Nc3c(C)cccc3Cl)s2)cc(N2CCN(CCO)CC2)n1 [Dasatinib]	20.8 µM	–

Compound	ΔΨm loss EC20 [2]	other results
COc1cccc2c1C(=O)c1c(O)c3c(c(O)c1C2=O)C[C@@](O)(C(C)=O)C[C@@H]3O[C@H]1C[C@H](N)[C@H](O)[C@H](C)O1 [Daunorubicin]	–	O2 cons CI EC20 [1]: 10.9 µM
CC1=NS(=O)(=O)c2cc(Cl)ccc2N1 [Diazoxide]	> 200 µM	–
O=C(O)c1cc(-c2ccc(F)cc2F)ccc1O [Diflunisal]	17.9 µM	–
CCN(CC)C(=S)SSC(=S)N(CC)CC [Disulfiram]	12.6 µM	–
COc1cccc2c1C(=O)c1c(O)c3c(c(O)c1C2=O)C[C@@](O)(C(=O)CO)C[C@@H]3O[C@H]1C[C@H](N)[C@H](O)[C@H](C)O1 [Doxorubicin]	8.9 µM	–
Clc1ccc(COC(Cn2ccnc2)c2ccc(Cl)cc2Cl)cc1 (centres unmarked) [Econazole]	13.3 µM	–
O=C(O)c1ccccc1Nc1cccc(C(F)(F)F)c1 [Flufenamic acid]	42.5 µM	–
CC(C)C(=O)Nc1ccc([N+](=O)[O-])c(C(F)(F)F)c1 [Flutamide]	27.0 µM	–
COc1cc2ncnc(Nc3ccc(F)c(Cl)c3)c2cc1OCCCN1CCOCC1 [Gefitinib]	9.6 µM	–
O=c1c(-c2ccc(O)cc2)coc2cc(O)cc(O)c12 [Genistein]	150.6 µM	–
CNC(C)C1CCC(N)C(OC2C(N)CC(N)C(OC3OCC(C)(O)C(NC)C3O)C2O)O1 (centres unmarked) [Gentamicin]	49.0 µM	–
CCC1=C(C)CN(C(=O)NCCc2ccc(S(=O)(=O)NC(=O)N[C@H]3CC[C@H](C)CC3)cc2)C1=O [Glimepiride]	94.6 µM	–
Cc1cc2c(C(C)C)c(O)c(O)c(C=O)c2c(O)c1-c1c(C)cc2c(C(C)C)c(O)c(O)c(C=O)c2c1O [Gossypol]	1.0 µM	–
CC(C)=CCC[C@]1(C)[C@@H](CC=C(C)C)C[C@@]2(CC=C(C)C)C(=O)[C@]1(C(=O)C(C)C)C(=O)C(CC=C(C)C)=C2O [Hyperforin]	0.1 µM	–
Cc1ccc(NC(=O)c2ccc(CN3CCN(C)CC3)cc2)cc1Nc1nccc(-c2cccnc2)n1 [Imatinib]	25.7 µM	–
CN(C)CCCN1c2ccccc2CCc2ccccc21 [Imipramine]	74.8 µM	–
COc1ccc2c(c1)c(CC(=O)O)c(C)n2C(=O)c1ccc(Cl)cc1 [Indomethacin]	443.2 µM	–
NNC(=O)c1ccncc1 [Isoniazide]	504.6 µM	–
O=C(O)c1nn(Cc2ccc(Cl)cc2Cl)c2ccccc12 [Lonidamine]	138.1 µM	–
Cc1cccc(Nc2ccccc2C(=O)O)c1C [Mefenamic acid]	49.7 µM	–
Sc1ncnc2nc[nH]c12 [Mercaptopurine]	406.9 µM	–
CO[C@@]12[C@H](COC(N)=O)C3=C(C(=O)C(C)=C(N)C3=O)N1C[C@@H]1N[C@@H]12 [Mitomycin C]	> 200 µM	–
O=C1c2c(O)ccc(O)c2C(=O)c2c(NCCNCCO)ccc(NCCNCCO)c21 [Mitoxantrone]	7.00 µM	–
Cc1c(O)cccc1C(=O)N[C@@H](CSc1ccccc1)[C@H](O)CN1C[C@H]2CCCC[C@H]2C[C@H]1C(=O)NC(C)(C)C [Nelfinavir]	6.3 µM	concentrations collapsing the ΔΨm and altering the mitochondrial respiration [2]: lower than 50 μM

Compound	ΔΨm loss EC20 [2]	other results
CO[C@]12C[C@@H](COC(=O)c3cncc(Br)c3)CN(C)[C@@H]1Cc1cn(C)c3cccc2c13 [Nicergoline]	82.6 µM	–
Cc1cn(-c2cc(NC(=O)c3ccc(C)c(Nc4nccc(-c5cccnc5)n4)c3)cc(C(F)(F)F)c2)cn1 [Nilotinib]	11.5 µM	–
CS(=O)(=O)Nc1ccc([N+](=O)[O-])cc1Oc1ccccc1 [Nimesulide]	10.1 µM	–
CCCCC1C(=O)N(c2ccccc2)N(c2ccccc2)C1=O [Phenylbutazone]	140.2 µM	–
CC[C@H](C)C(=O)O[C@H]1C[C@H](O)C=C2C=C[C@H](C)[C@H](CC[C@@H](O)C[C@@H](O)CC(=O)O)[C@H]21 [Pravastatin]	> 200 µM	–
CCCc1cc(=O)[nH]c(=S)[nH]1 [Propylthiouracil]	391.5 µM	–
Oc1ccc(/C=C/c2cc(O)cc(O)c2)cc1 [Resveratrol]	395.4 µM	–
Cc1cc2nc3c(=O)[nH]c(=O)nc-3n(C[C@H](O)[C@H](O)[C@H](O)CO)c2cc1C [Riboflavin]	–	O2 cons CI EC20 [1]: 182.8 µM
CO[C@H]1/C=C/O[C@@]2(C)Oc3c(C)c(O)c4c(O)c(c(/C=N/N5CCN(C)CC5)c(O)c4c3C2=O)NC(=O)/C(C)=C\C=C\[C@H](C)[C@H](O)[C@@H](C)[C@@H](O)[C@@H](C)[C@H](OC(C)=O)[C@@H]1C [Rifampicin]	> 800 µM	–
CC(C)c1nc(CN(C)C(=O)N[C@H](C(=O)N[C@@H](Cc2ccccc2)C[C@H](O)[C@H](Cc2ccccc2)NC(=O)OCc2cncs2)C(C)C)cs1 [Ritonavir]	24.8 µM	concentrations collapsing the ΔΨm and altering the mitochondrial respiration [2]: lower than 50 μM
CC[C@H]1OC(=O)[C@H](C)[C@@H](O[C@H]2C[C@@](C)(OC)[C@@H](O)[C@H](C)O2)[C@H](C)[C@@H](O[C@@H]2O[C@H](C)C[C@H](N(C)C)[C@H]2O)[C@](C)(O)C[C@@H](C)/C(=N\OCOCCOC)[C@H](C)[C@@H](O)[C@]1(C)O [Roxithromycin]	244.8 µM	–
CNC(=O)c1cc(Oc2ccc(NC(=O)Nc3ccc(Cl)c(C(F)(F)F)c3)cc2)ccn1 [Sorafenib]	0.5 µM	–
[H]/N=C(/N)N[C@H]1[C@H](O)[C@@H](O)[C@H](O[C@@H]2O[C@@H](C)[C@](O)(C=O)[C@H]2O[C@@H]2O[C@@H](CO)[C@H](O)[C@@H](O)[C@@H]2NC)[C@@H](N/C(N)=N\[H])[C@@H]1O [Streptomycin]	78.8 µM	–
CCN(CC)CCNC(=O)c1c(C)[nH]c(/C=C2\C(=O)Nc3ccc(F)cc32)c1C [Sunitinib]	23.2 µM	–
CC/C(=C(\c1ccccc1)c1ccc(OCCN(C)C)cc1)c1ccccc1 [Tamoxifen]	2.9 µM	–
CN(C/C=C/C#CC(C)(C)C)Cc1cccc2ccccc12 [Terbinafine]	12.5 µM	–
Clc1ccccc1CN1CCc2sccc2C1 [Ticlopidine]	50.5 µM	–
Cc1ccc(C(=O)c2cc(O)c(O)c([N+](=O)[O-])c2)cc1 [Tolcapone]	3.9 µM	–
Cc1c(Cl)cccc1Nc1ccccc1C(=O)O [Tolfenamic acid]	7.1 µM	–
COc1cccc(C2(O)CCCCC2CN(C)C)c1 (centres unmarked) [Tramadol]	263.8 µM	–
CC[C@]1(O)C[C@@H]2CN(CCc3c([nH]c4ccccc34)[C@@](C(=O)OC)(c3cc4c(cc3OC)N(C)[C@H]3[C@@](O)(C(=O)OC)[C@H](OC(C)=O)[C@]5(CC)C=CCN6CC[C@]43[C@@H]65)C2)C1 [Vinblastine]	25.7 µM	–
CCOC(=O)CN[C@@H](C(=O)N1CC[C@H]1C(=O)NCc1ccc(/C(N)=N\O)cc1)C1CCCCC1 [Ximelagatran]	535.7 µM	–
